One experiment deals with human KHK-C (Homo sapiens (Human), UniProt P50053). The experiment is described as follows: KHK Biochemical Assay (IC50), ADP-Glo, KHK-C. Conditions: average of at least two separate assays. An outline of the steps: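 ADP-Glo luminescence measured ADP made over a 4 h room-temperature reaction of ATP plus fructose, started after 30 min compound–enzyme pre-incubation. Buffer: 50 mM Hepes pH 7.4, 140 mM KCl, 5 mM MgCl2, 0.01% Triton-X. Enzyme was His-tagged, BL21 (DE3)-expressed, Ni-NTA-purified; compounds in 1:3 DMSO dilution series.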
Sequence of human KHK-C (P50053 whole entry): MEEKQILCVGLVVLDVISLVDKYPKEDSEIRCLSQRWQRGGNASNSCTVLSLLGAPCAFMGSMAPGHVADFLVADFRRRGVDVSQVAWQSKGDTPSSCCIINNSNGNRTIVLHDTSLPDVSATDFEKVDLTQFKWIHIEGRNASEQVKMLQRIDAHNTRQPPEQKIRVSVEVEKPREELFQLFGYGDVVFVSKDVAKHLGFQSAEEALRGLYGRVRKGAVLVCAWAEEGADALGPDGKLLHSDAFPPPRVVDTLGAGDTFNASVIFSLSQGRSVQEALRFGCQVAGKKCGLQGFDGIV

In experiment [1] the target is KHK-C expressed in NRK-52E cells (Homo sapiens (Human), UniProt P50053). The experiment is described as follows: KHK-C Cell-based Assay (EC50), NRK CTG, fructose-mediated ATP-depletion.
Sequence of KHK-C expressed in NRK-52E cells (P50053 whole entry): as above

For orientation: IC50 means the concentration needed to halve the response being measured. Higher therefore signals weaker potency in that assay. A word on the EC50: it is the concentration that produces a half-maximal response. Read a high EC50 as a need for much substance. Compound `C[C@H]1CCN1c1nc2c(c(-c3cccc(S(C)(=O)=O)c3)n1)CCC2` [Example 399, (S)-2-(2-methylazetidin-1-yl)-4-(3-(methylsulfonyl)phenyl)-6,7-dihydro-5H-cyclopenta[d]pyrimidine] showed an IC50 against human KHK-C of 0.0743 µM. The same compound displayed a half-maximal effective concentration (EC50) in experiment [1] of 0.139 µM.

On human KHK-C, `NC(=O)c1ccc(-c2nc(N3CCCC34CC4)nc3c2CCC3)cc1` [Example 402, 4-(2-(4-azaspiro[2.4]heptan-4-yl)-6,7-dihydro-5H-cyclopenta[d]pyrimidin-4-yl)benzamide] registered an IC50 of 3.76 µM. In experiment [1], this compound yielded an EC50 of 1.59 µM.

Consider `C[C@H]1CCCN1c1nc2c(c(-c3ccc(C(N)=O)cc3)n1)CCC2` [Example 403, (S)-4-(2-(2-methylpyrrolidin-1-yl)-6,7-dihydro-5H-cyclopenta[d]pyrimidin-4-yl)benzamide], for which the IC50 at human KHK-C is 0.217 µM. The EC50 in experiment [1] came to 0.242 µM.

`C[C@@H]1CCCN1c1nc2c(c(-c3ccc(C(N)=O)cc3)n1)CCC2` [Example 404, (R)-4-(2-(2-methylpyrrolidin-1-yl)-6,7-dihydro-5H-cyclopenta[d]pyrimidin-4-yl)benzamide] had an IC50 on human KHK-C greater than 5 µM. In experiment [1], the EC50 was greater than 5 µM.

At human KHK-C, `NC(=O)c1ccc(-c2nc(N3CCC3)nc3c2CCC3)cc1` [Example 405, 4-(2-(azetidin-1-yl)-6,7-dihydro-5H-cyclopenta[d]pyrimidin-4-yl)benzamide] showed a concentration for half-maximal inhibition (IC50) of 2.47 µM. This compound also gave an EC50 in experiment [1] of 4.77 µM.

In the case of `CSCC1CCN1c1nc2c(c(-c3ccc(C(N)=O)cc3)n1)CCC2` (stereo not drawn) [Example 415, 4-(2-(2-((methylthio)methyl)azetidin-1-yl)-6,7-dihydro-5H-cyclopenta[d]pyrimidin-4-yl)benzamide], at human KHK-C, the IC50 is greater than 5 µM. Also, the EC50 in experiment [1] is greater than 5 µM.

Take `NC(=O)c1ccc(-c2nc(N3CCCC3=O)nc3c2CCC3)cc1` [Example 418, 4-(2-(2-oxopyrrolidin-1-yl)-6,7-dihydro-5H-cyclopenta[d]pyrimidin-4-yl)benzamide]: the IC50 at human KHK-C was greater than 5 µM. The same compound came in with an EC50 in experiment [1] greater than 5 µM.

The compound `C[C@H]1CCN1c1nc2c(c(-c3cccc(C4=CS(=O)(=O)C4)c3)n1)CCC2` [Example 420, (S)-3-(3-(2-(2-methylazetidin-1-yl)-6,7-dihydro-5H-cyclopenta[d]pyrimidin-4-yl)phenyl)-2H-thiete 1,1-dioxide] returned an IC50 on human KHK-C of 0.0618 µM. This compound also gave an EC50 in experiment [1] of 0.382 µM.

With `C[C@H]1CCN1c1nc2c(c(-c3cccc(C4CS(=O)(=O)C4)c3)n1)CCC2` [Example 421, (S)-3-(3-(2-(2-methylazetidin-1-yl)-6,7-dihydro-5H-cyclopenta[d]pyrimidin-4-yl)phenyl)thietane 1,1-dioxide], the IC50 on human KHK-C worked out at 0.067 µM. The compound further registered an EC50 in experiment [1] of 0.297 µM.

Consider `C[C@H]1CCN1c1nc2c(c(-c3ccc4c(c3)CS(=O)(=O)C4)n1)CCC2` [Example 422, (S)-5-(2-(2-methylazetidin-1-yl)-6,7-dihydro-5H-cyclopenta[d]pyrimidin-4-yl)-1,3-dihydrobenzo[c]thiophene 2,2-dioxide], for which the IC50 on human KHK-C was found to be 0.095 µM. In experiment [1], the EC50 is 0.24 µM.

As for `C[C@H]1CCN1c1nc2c(c(-c3cccc([C@@H]4[C@@H](C(=O)O)C4(C)C)c3)n1)CCC2` [Example 435, (1R,3R)-2,2-dimethyl-3-(3-(2-((S)-2-methylazetidin-1-yl)-6,7-dihydro-5H-cyclopenta[d]pyrimidin-4-yl)phenyl)cyclopropane-1-carboxylic acid], inhibition on human KHK-C was half-maximal at 0.0054 µM (IC50). Further, a half-maximal response in experiment [1] (EC50) required 0.0784 µM.

In turn, `CC(C)(O)[C@H]1CCN1c1nc2c(c(-c3ccc(C(N)=O)cc3)n1)CCC2` [Example 436, 4-[2-[(2R)-2-(1-hydroxy-1-methyl-ethyl)azetidin-1-yl]-6,7-dihydro-5H-cyclopenta[d]pyrimidin-4-yl]benzamide] returned an IC50 at human KHK-C of 2.73 µM. In addition, the EC50 in experiment [1] was 2.94 µM.

(Values after patent publication US12410160B2 (Gilead Sciences, Inc., priority 2021, dated 2025).)
